Tests used:
A431 cell line = experiment: NRU cell viability assay; assay type: cell-based; conditions: Homo sapiens, A-431, 24 h
Description: (§1) The murine Swiss albino fibroblast (3T3), the squamous carcinoma (A431), the immortal human keratinocyte (HaCaT) and the human epithelial carcinoma (HeLa) cell lines were obtained from Celltec UB. Cells were grown in Dulbecco’s Modified Eagle’s Medium (DMEM) (4.5 g/L glucose) supplemented with 10% (v/v) fetal bovine serum (FBS), 1% (v/v) L-glutamine solution (200 mM) and 1% (v/v) penicillin-streptomycin solution (10,000 U/mL penicillin and 10 mg/mL streptomycin) at 37 °C and 5% CO2 (CO2 Incubator Nuaire, Plymouth, MN, USA). All the biological materials were purchased from Lonza (Verviers, Belgium). Cells were cultured in 75 cm^2 culture flasks (TPP, Trasadingen, Switzerland) and were routinely split using trypsin-EDTA (ethylenediaminetetraacetate) solution (170,000 U/L trypsin and 0.2 g/L EDTA) (Lonza, Verviers, Belgium) when cells are approximately 80% confluent. 3T3 and HaCaT cells (1 × 10^5 cells/ mL) and HeLa and A431 cells (5 × 10^4 cells/mL) were grown at the defined densities into the central 60 wells of a 96-well plate. Cells were incubated for 24 h under 5% CO2 at 37 °C. […] Agitation, determination of the absorbance of the extracted solution and effect of each treatment in comparison with control cells were analogous of those described in the case of the MTT method.

HeLa cell line = experiment: NRU cell viability assay; assay type: cell-based; conditions: Homo sapiens, 24 h
Description: as §1

CCCCCCCCCCCCCC(=O)O [Sodium myristate, sodium myristate]
IC50 (A431 cell line): > 50 µM | IC50 (HeLa cell line): > 50 µM
